Series [1] is described as follows: Isothermal titration calorimeter (ITC), binding of Gd^3+ to ligand. The settings on record: 25° C., pH = 4.5, read-out: Kd (dissociation constant). On the procedure:
In order to quantify binding isotherms of paramagnetic metal ions Gd^3+ with a ligand solution, an ITC test is executed at a VP-ITC isothermal titration microcalorimeter (Microcal, USA). Data collection, analysis and plotting are executed with help of software package Origin, version 8.0 from Microcal. A sample cell has a 1.43 mL volume. The cell is filled with a water-soluble buffer solution of the above compound 1a-e ligand (0.2 mM). A water-soluble buffer solution of Gd^3+ (1.0 mM) is input into a 300 μL continuous agitated (300 rpm) syringe and 10 μL aliquots thereof is injected into the cell. At a 3-mins interval, the cell is delivered over 20 s. Data points are collected on a 2 s basis. The measurement is executed at 25° C. All titrations are executed three times to secure data consistency and solution stability. These titration isotherms are integrated to find out an enthalpy change at each injection. In order to fit well with two mathematically different sets of site models, the titration isotherms are analyzed. Via a calorie measurement, parameters including a binding constant (Ka), a change in enthalpy (ΔH), a stoichiometry of binding (N) are calculated. Next, a free energy (ΔG) and an entropy change (ΔS) are calculated using a following complexation equation: Mn++nL↔MLn:ΔG=−RT·InKa=ΔH-TΔS,
where, R indicates a universal gas constant; T is Kelvin temperature.
In general terms: Isothermal titration calorimetry measures the heat released or taken up as one component is titrated into another.

The nature of series [2]: Stability against hydrolysis in H2O (HPLC, 197 nm). The note with it: for HPLC peak 2.31 min, 2b / HPLC peak 27.11 min, 2a (trans) / HPLC peak 30.48 min, 2a (cis) / HPLC peak 52.24 min: 2a in water. Format: physicochemical. As for the experimental part:
The contrast agents of the present series 100 mg are dissolved in distilled water 10 mL and is maintained as they are for 72 hours at 50° C. Using HPLC, O.D. (Optical Density) values are read at 197 nm and the stability of the agents is determined. The substances at each retention time are examined using LC Mass Spectroscopy for accurate identification of decomposed products.

The nature of series [3]: Relaxation rate measurement (R1, R2) in PBS and in PBS solution of HSA. The series is classed as physicochemical. The settings on record: 293K. As for the experimental part:
T1 measurement is carried out using an inversion recovery method at 1.5 T (64 MHz) in a variable inverse time (TI). MR images are obtained for 35 different TI values in a range of 50 to 1750 ms. A T1 relaxation time is obtained from a nonlinear least-squares fit of a signal strength measured at each TI value. For a T2 CPMG (Carr-Purcell-Meiboon-Gill) pulse sequence measurement, the measurement is adapted to a multi spin-echo measurement. 34 images are obtained at 34 different echo time (TE) values in a range of 10 to 1900 ms. The T2 relaxation time is obtained from a nonlinear least-squares fit of mean pixel values for multi spin-echo measurement at each echo time. Next, a relaxation rate (R1 and R2) is calculated as an inverse of a relaxation time per mM. The determined relaxation time (T1 and T2) and relaxation rate (R1 and R2) are subjected to an image processing to get a relaxation time map and relaxation rate respectively.
For comparison between the complexes 2a-e, there is no noticeable difference in R1's. The measurement is carried out for two different media, that is, PBS (pH=7.4) and PBS solution of HAS in order to indicate which blood-pool effect is expressed by the complexes 2a-e.

The test system of the next series is ICR mice. In words: In vivo MR experiment, T1-weighted images after tail vein injection. The settings on record: 0.1 mmol Gd/kg i.v. On the procedure: The in vivo experiment is executed with compliance to a regulation of Animal Research Committee of KNU. 29-31 g weight 6-weeks male ICR mice are used. […] The measurement is carried out before and after the injection of the complexes 2a-e through the tail vein. […] After the mice wake from the anesthesia after each measurement, the mice were placed in a cage capable of free access to feed and food. For this measurement, the animals are held at about 37° C. using a warm water blanket. MR images are taken using a 1.5 T MR unit (GE Healthcare, Milwaukee, Wis.) with a manual RF coil for a small animal. The coil may be of a receiver type having a 50 mm inner diameter. […] MR images are collected for 24 h after the injection. Anatomical positions having an improved contrast are set for a liver, a bile duct, and a kidney on (post contrast) MR images. For quantitative measurements, a signal intensity in a region of interest (ROI) is measured using Advantage Window software (GE medical, U.S.). The CNR is calculated using a following equation (1): […] SNR is a […].

The nature of series [4]: Kinetic stability in various pH ranges (evolution of R1 in PBS). The settings on record: pH 1, [Gd]=1.0 mM in PBS, room temperature. Format: physicochemical. On the procedure:
The kinetic stability is expressed as evolution of a water proton relaxation rate (R1) for 2 ([Gd]=1.0 mM) in PBS under various pH conditions (pH: 1, 3, 5, 7, 9 and 11) at a room temperature, as a function of the incubation time. The measurement is executed on a 1.5 T whole body system (GE Healthcare, Milwaukee, Wis., USA).

Series [5] in a line: Transmetalation kinetics with ZnCl2, evolution of R1P(t)/R1P(0). The series is classed as physicochemical. The note with it: 72 h; phosphate buffer pH 7.4, 2.5 mmol/L Gd complex + 2.5 mmol/L ZnCl2, room temperature, 3T. On the procedure:
This experiment is prepared using a previous document method (Laurent, S. Elst, L. V.; Copoix, F.; Muller, R. N. Investigative radiology 2001, 36, 115). This is based on measurements of evolution of a water proton longitudinal relaxation rate (R1P) of a buffer solution (phosphate buffer, pH 7.4) containing 2.5 mmol/L gadolinium complex and 2.5 mmol/L ZnCl2. Next, 10 μL ZnCl2 250 mmol/L solution is added to a […] paramagnetic complex buffer solution. The mixture is strongly agitated, and then, 300 μL thereof is taken for a relaxation measurement (relaxometric measurement). […] A R1P relaxation rate is acquired by excluding a diamagnetic contribution of a water proton relaxation from the measured relaxation rate R1=(1/T1). The measurement is performed at a room temperature on a 3T whole body system (Magnetom Tim Trio, Simens, Korea Institute of Radiological & Medical Science).
An evaluation of a normal paramagnetic longitudinal relaxation rate R1P (t)/R1P (0) is observed between the present series 2a-e and comparison examples Dotarem®, Primovist®, Multihance®, and Omniscan® (FIG. 4). The used complex in the test is divided into two following groups based on an evolution pattern: (i) a group employing a macrocyclic chelate (ii) a group employing an acyclic chelate. […]

Where [6] appears, read: PBS solution of 0.67 mM HSA, 64 MHz.

Entries after “also recorded” stand apart in the source; their conditions may differ.

Turning to `NC1CCC(NC(=O)CN2CCN(CC(=O)O)CCN(CC(=O)O)CCN(CC(=O)O)CC2)CC1` (stereo not shown) [1d], the equilibrium dissociation constant (Kd) (commonly the equilibrium constant for the complex coming apart) in series [1] worked out at 29.3 µM.

As for `CCOC(=O)C1CCC(CNC(=O)CN2CCN(CC(=O)[O-])CCN(CC(=O)[O-])CCN(CC(=O)[O-])CC2)CC1.[Gd+3]` (stereo not shown) [2a], the “hydrolytic stability (in words)” value in series [2] (100 mg in distilled water 10 mL, 72 hours at 50° C.) is given as “hydrolytic stability falls”. In addition, in series [2] (50° C./3 day), the “HPLC peak 2.31 min, 2b” value amounted to 0.72%; the “HPLC peak 27.11 min, 2a (trans)” value came out at 97.43%; the “HPLC peak 30.48 min, 2a (cis)” value came out at 1.25%; the “HPLC peak 52.24 min” value worked out at 0.19%. Besides, in series [2] (initial), the “HPLC peak 2.31 min, 2b” value was determined as 0.01%; the “HPLC peak 27.11 min, 2a (trans)” value is given as 97.73%; the “HPLC peak 30.48 min, 2a (cis)” value is 1.89%; the “HPLC peak 52.24 min” value is recorded as 0.04%. In series [3] (PBS pH 7.4, 64 MHz (1.5 T)), the R1 was determined as 4.84 ± 0.18 mM⁻¹ s⁻¹ and the R2 was determined as 4.91 ± 0.25 mM⁻¹ s⁻¹. Moreover, in series [3] (setting [6]), the “R1 in 0.67 mM HSA” value was found to be 5.11 ± 0.10 mM⁻¹ s⁻¹ and the “R2 in 0.67 mM HSA” value stood at 6.04 ± 0.13 mM⁻¹ s⁻¹. Besides, in the series with ICR mice (ICR mice, 1.5 T, initial 1 hour), the “signal enhancement / signal strength at the liver” value is listed as “insufficient to be qualified as the liver-specific contrast agent”. For the same compound, the “liver-specificity / class of contrast agent” value in the series with ICR mice (in vivo MR images of mice) is “exhibits the liver-specificity; also recorded: true liver-specific contrast agent”. In addition, the “kinetic stability (evolution of R1)” value in series [4] is “sufficient kinetic stability”.

On to `CNC[C@H](O)[C@@H](O)[C@H](O)[C@H](O)CO.CNC[C@H](O)[C@@H](O)[C@H](O)[C@H](O)CO.O=C([O-])CN(CCN(CC(=O)[O-])CC(=O)O)CCN(CC(=O)O)C(COCc1ccccc1)C(=O)[O-].[Gd+3]` (stereo not shown) [Multihance, Gd-BOPTA], for which the “portion of the initial paramagnetic relaxation rate kept, R1P(t)/R1P(0)” value in series [5] amounted to 50%.

For `CCOc1ccc(CC(CN(CCN(CC(=O)[O-])CC(=O)[O-])CC(=O)[O-])N(CC(=O)[O-])CC(=O)[O-])cc1.[Gd+3].[Na+].[Na+]` (stereo not shown) [Primovist, Gd-EOB-DTPA], in series [5], the “portion of the initial paramagnetic relaxation rate kept, R1P(t)/R1P(0)” value came to 50%.
